Results from patent US9040712B2, “Thiadiazole analogs thereof and methods for treating SMN-deficiency-related-conditions” (NOVARTIS AG, priority 2013, dated 2015).

Tested on: SMN protein
Assay: cellular SMN ELISA (SMN protein elevation)
Format: cell-based
Conditions: myoblast cell line derived from SMNdelta7 mouse model; 24 hours compound treatment; concentration range 100 pM-10 uM
Outline: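 Myoblasts derived from the SMNdelta7 mouse model, 3000 cells/well, treated with compound (100 pM–10 uM) for 24 h, then lysed in modified RIPA buffer. SMN protein quantified by sandwich ELISA (anti-SMN mAb capture, rabbit polyclonal detection, HRP/TMB, 450 nm). Results given as fold activation over DMSO and EC50.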

Compound | EC50 [µM] | SMN Activity Fold (fold activation over DMSO control)
CN(c1nnc(-c2ccc(C#N)cc2F)s1)C1CC(C)(C)NC(C)(C)C1 [Example 34, 3-fluoro-4-(5-(methyl(2,2,6,6-tetramethylpiperidin-4-yl)amino)-1,3,4-thiadiazol-2-yl)benzonitrile] | > 10 | 2.32 fold
CN(c1nnc(-c2ccc(-n3ccnn3)cc2Cl)s1)C1CC(C)(C)NC(C)(C)C1 [Example 66, 5-(2-chloro-4-(1H-1,2,3-triazol-1-yl)phenyl)-N-methyl-N-(2,2,6,6-tetramethylpiperidin-4-yl)-1,3,4-thiadiazol-2-amine] | 0.13 | 2.32 fold
COC(=O)c1ccc(-c2nnc(N(C)C3CC(C)(C)NC(C)(C)C3)s2)c(F)c1 [Example 35, methyl 3-fluoro-4-(5-(methyl(2,2,6,6-tetramethyl-piperidin-4-yl)amino)-1,3,4-thiadiazol-2-yl) benzoate] | 0.864 | 2.81 fold
CN(c1nnc(-c2ccc(-n3cccn3)cc2Cl)s1)C1CC(C)(C)NC(C)(C)C1 [Example 65, 5-(2-chloro-4-(1H-pyrazol-1-yl)phenyl)-N-methyl-N-(2,2,6,6-tetramethylpiperidin-4-yl)-1,3,4-thiadiazol-2-amine] | 0.273 | 2.37 fold
CN(c1nnc(-c2ccc(-c3cn[nH]c3)cc2Cl)s1)C1CC(C)(C)NC(C)(C)C1 [Example 40, 5-(2-chloro-4-(1H-pyrazol-4-yl)phenyl)-N-methyl-N-(2,2,6,6-tetramethylpiperidin-4-yl)-1,3,4-thiadiazol-2-amine] | 0.034 | 2.55 fold
CNc1ccn(-c2ccc(-c3nnc(N(C)C4CC(C)(C)NC(C)(C)C4)s3)c(OC)c2)n1 [Example 36, 5-(2-methoxy-4-(3-(methylamino)-1H-pyrazol-1-yl)phenyl)-N-methyl-N-(2,2,6,6-tetramethyl-piperidin-4-yl)-1,3,4-thiadiazol-2-amine] | 0.163 | 2.15 fold
CN1CC[C@@H]2CN(c3nnc(-c4ccc(-c5cn[nH]c5)cc4Cl)s3)C[C@@H]21 [Example 81, 2-(2-chloro-4-(1H-pyrazol-4-yl)phenyl)-5-((3aR,6aR)-1-methylhexahydropyrrolo[3,4-b]pyrrol-5(1H)-yl)-1,3,4-thiadiazole] | 1.54 | 2.38 fold
CN(c1nnc(-c2ccc(-c3ccn[nH]3)c(F)c2F)s1)C1CC(C)(C)NC(C)(C)C1 [Example 49, 5-(2,3-difluoro-4-(1H-pyrazol-5-yl)phenyl)-N-methyl-N-(2,2,6,6-tetramethylpiperidin-4-yl)-1,3,4-thiadiazol-2-amine] | 0.081 | 2.42 fold
CN(c1nnc(-c2ccc(-c3ccn[nH]3)cc2F)s1)C1CC(C)(C)NC(C)(C)C1 [Example 47, 5-(2-fluoro-4-(1H-pyrazol-5-yl)phenyl)-N-methyl-N-(2,2,6,6-tetramethylpiperidin-4-yl)-1,3,4-thiadiazol-2-amine] | 0.152 | 2.29 fold
COc1cc(-c2ccc(-c3nnc(N(C)C4CC(C)(C)NC(C)(C)C4)s3)c(OC)c2)ccn1 [Example 77, 5-(2-methoxy-4-(2-methoxypyridin-4-yl)phenyl)-N-methyl-N-(2,2,6,6-tetramethyl-piperidin-4-yl)-1,3,4-thiadiazol-2-amine] | 0.052 | 3.33 fold
CN(c1nnc(-c2cc3c(cc2O)C(=O)CC3)s1)C1CC(C)(C)NC(C)(C)C1 [Example 92, 6-hydroxy-5-(5-(methyl(2,2,6,6-tetramethylpiperidin-4-yl)amino)-1,3,4-thiadiazol-2-yl)-2,3-dihydro-1H-inden-1-one] | 0.091 | 2.50 fold
COc1ccc(-c2ccc(-c3nnc(N(C)C4CC(C)(C)NC(C)(C)C4)s3)c(OC)c2)cn1 [Example 78, 5-(2-methoxy-4-(6-methoxypyridin-3-yl)phenyl)-N-methyl-N-(2,2,6,6-tetramethyl-piperidin-4-yl)-1,3,4-thiadiazol-2-amine] | 0.165 | 2.52 fold
CN(c1nnc(-c2cc(-c3ccnc(N)n3)ccc2Cl)s1)C1CC(C)(C)NC(C)(C)C1 [Example 57, 5-(5-(2-aminopyrimidin-4-yl)-2-chlorophenyl)-N-methyl-N-(2,2,6,6-tetramethylpiperidin-4-yl)-1,3,4-thiadiazol-2-amine] | 0.094 | 2.55 fold
CN(c1nnc(-c2ccc(-c3cn[nH]c3)cc2F)s1)C1CC(C)(C)NC(C)(C)C1 [Example 76, 5-(2-fluoro-4-(1H-pyrazol-4-yl)phenyl)-N-methyl-N-(2,2,6,6-tetramethylpiperidin-4-yl)-1,3,4-thiadiazol-2-amine] | 0.043 | 3.06 fold
CN(c1nnc(-c2cc(F)c(-c3ccn[nH]3)cc2F)s1)C1CC(C)(C)NC(C)(C)C1 [Example 51, 5-(2,5-difluoro-4-(1H-pyrazol-5-yl)phenyl)-N-methyl-N-(2,2,6,6-tetramethylpiperidin-4-yl)-1,3,4-thiadiazol-2-amine] | 0.085 | 2.86 fold
CN(c1nnc(-c2ccc(-c3ccnc(N)n3)cc2Cl)s1)C1CC(C)(C)NC(C)(C)C1 [Example 56, 5-(4-(2-aminopyrimidin-4-yl)-2-chlorophenyl)-N-methyl-N-(2,2,6,6-tetramethylpiperidin-4-yl)-1,3,4-thiadiazol-2-amine] | 0.041 | 2.47 fold
CN(c1nnc(-c2ccc(-c3cnn(C)c3)cc2O)s1)C1CC(C)(C)NC(C)(C)C1 [Example 15, 2-(5-(Methyl(2,2,6,6-tetramethylpiperidin-4-yl)amino)-1,3,4-thiadiazol-2-yl)-5-(1-methyl-1H-pyrazol-4-yl)phenol] | 0.032 | 3.14 fold
COc1cc(-c2ccn[nH]2)ccc1-c1nnc(N(C)C2CC(C)(C)NC(C)(C)C2)s1 [Example 73, 5-(2-methoxy-4-(1H-pyrazol-5-yl)phenyl)-N-methyl-N-(2,2,6,6-tetramethylpiperidin-4-yl)-1,3,4-thiadiazol-2-amine] | 0.11 | 2.73 fold
CN(c1nnc(-c2ccc(-n3ccnc3)cc2Cl)s1)C1CC(C)(C)NC(C)(C)C1 [Example 71, 5-(2-chloro-4-(1H-imidazol-1-yl)phenyl)-N-methyl-N-(2,2,6,6-tetramethylpiperidin-4-yl)-1,3,4-thiadiazol-2-amine] | 0.032 | 2.40 fold
CN(c1nnc(-c2ccc(-c3ccn(C)c(=O)c3)cc2Cl)s1)C1CC(C)(C)NC(C)(C)C1 [Example 39, 4-(3-chloro-4-(5-(methyl(2,2,6,6-tetramethyl-piperidin-4-yl)amino)-1,3,4-thiadiazol-2-yl)phenyl)-1-methylpyridin-2(1H)-one] | 0.05 | 2.31 fold
Cc1cc(-c2ccc(-c3nnc(N(C)C4CC(C)(C)NC(C)(C)C4)s3)c(F)c2)[nH]n1 [Example 46, 5-(2-fluoro-4-(3-methyl-1H-pyrazol-5-yl)phenyl)-N-methyl-N-(2,2,6,6-tetramethylpiperidin-4-yl)-1,3,4-thiadiazol-2-amine] | 0.122 | 2.32 fold
COc1cc2ccccc2cc1-c1nnc(N(C)C2CC(C)(C)NC(C)(C)C2)s1 [Example 4, 5-(3-Methoxynaphthalen-2-yl)-N-methyl-N-(2,2,6,6-tetramethylpiperidin-4-yl)-1,3,4-thiadiazol-2-amine] | 0.887 | 2.48 fold
COc1cc2nc(C#N)ccc2cc1-c1nnc(N(C)C2CC(C)(C)NC(C)(C)C2)s1 [Example 37, 7-methoxy-6-(5-(methyl(2,2,6,6-tetramethyl-piperidin-4-yl)amino)-1,3,4-thiadiazol-2-yl) quinoline-2-carbonitrile] | 0.078 | 2.19 fold
CN(c1nnc(-c2ccc(-c3ccc(=O)n(C)c3)cc2O)s1)C1CC(C)(C)NC(C)(C)C1 [Example 17, 5-(3-Hydroxy-4-(5-(methyl(2,2,6,6-tetramethyl-piperidin-4-yl)amino)-1,3,4-thiadiazol-2-yl)phenyl)-1-methylpyridin-2(1H)-one] | 0.036 | 2.74 fold
COc1cc(-c2cnn(C)c2)ccc1-c1nnc(N2CC3(CCNCC3)C2)s1 [Example 86, 2-(2-methoxy-4-(1-methyl-1H-pyrazol-4-yl)phenyl)-5-(2,7-diazaspiro[3.5]nonan-2-yl)-1,3,4-thiadiazole] | 0.152 | 2.33 fold
CN(c1nnc(-c2ccc(-c3cnn(C)c3)cc2C(F)(F)F)s1)C1CC(C)(C)NC(C)(C)C1 [Example 14] | – | inactive
COc1cc(-c2ccc(=O)n(C)c2)ccc1-c1nnc(N(C)C2CC(C)(C)NC(C)(C)C2)s1 [Example 10, 5-(3-Methoxy-4-(5-(methyl(2,2,6,6-tetramethyl-piperidin-4-yl)amino)-1,3,4-thiadiazol-2-yl)phenyl)-1-methylpyridin-2(1H)-one] | 0.079 | 2.65 fold
CN(c1nnc(-c2ccc(-c3ccc(=O)[nH]c3)cc2Cl)s1)C1CC(C)(C)NC(C)(C)C1 [Example 88, 5-(3-chloro-4-(5-(methyl(2,2,6,6-tetramethylpiperidin-4-yl)amino)-1,3,4-thiadiazol-2-yl)phenyl)pyridin-2(1H)-one] | 0.16 | 2.22 fold
